Test results from US11351185B2, “Use of isovalerylspiramycins as anti-cancer agents to inhibit metastasis” (priority 2020, dated 2022).
“Also recorded” adds a separate entry of the source.

How the values were obtained:
[1] = target: T1, SELH (Sec44→Cys44) synthesized in bacteria (Homo sapiens, UniProt Q8IZQ5, U44C); test: Surface plasmon resonance (SPR) assay, SELH; assay type: binding; conditions: 25° C.
T1 construct: made in house
Source text: Next, the inventors used a thermo-stability assay to confirm SELH was targeted by ISP I in LN229 and 786-O cell lines. The principle of the assay is based on altered protein thermal stabilization/destabilization due to ligand binding in living cells. […] (FIG. 5B and FIG. 6A). To verify further the specificity of ISP I's targeting of SELH, the inventors designed a surface plasmon resonance assay to assess the interaction of ISP I with SELH synthesized in bacteria.
The affinities constant (KD) and kinetics (ka and kd) of ISP I binding to SELH (Sec44→Cys44) were assayed using Biacore 8K (GE Healthcare, Sweden), all at 25° C. […] Coupling conditions were determined by protein isoelectric points. […]
To determine the binding affinity between ISP I and SELH (Sec44→Cys44), a series of ISP I dilutions was analyzed by single-cycle kinetics. […] The ISP I at various gradient concentrations and one zero concentration (running buffer) flowed over the immobilized SELH, with 120 s for binding, followed by disassociation for 120 s, and the obtained response units (RUs) were recorded. The RU values were collected, and the binding affinity data were calculated by kinetic models (1:1 interaction) within Biacore 8K Evaluation Software. The equilibrium dissociation constant (KD) was calculated to evaluate the ability of ISP I to interact with SELH.

JNK2, POL1, TIF1A = test: Western blot of JNK2 phosphorylation, POL1 and TIF1A; assay type: cell-based; conditions: LN229 cells
Protocol: (§1) SELH is localized in the nucleolus, which is a sensor of oxidative stress. Yang et al., Nature communications 7: 13599 (2016); Novoselov et al., J. Biol. Chem. 282: 11960 (2007). […] JNK2 activation by oxidative stress inactivated RNA polymerase I (POL1) transcription factor TIF1A in the nucleoli to down-regulate rRNA synthesis. Mayer et al., Genes Dev. 19: 933 (2005). To investigate whether the ribosomal biogenesis was disrupted by ISP I, pre-rRNA transcription was evaluated using real-time RT-PCR analysis in LN229 cells. […] To examine the mechanisms by which ISP I disrupts POL1 transcription, the inventors initially evaluated JNK2 activity and the overall state of the transcription machinery in ISP I-treated LN229 cells.
Western blotting was performed to detect the protein expression level of SELH, NRF2 and γH2AX regulated by ISP I. The cells were lysed by RIPA buffer from ThermoFisher Scientific, and the concentration was measured using DC Protein Assay, a Bio-Rad product. Equal amounts of protein of each sample were loaded for gel electrophoresis and were transferred to nitrocellulose membrane, blocked and incubated overnight at 4° C. with primary antibodies. Then the membranes were washed with TBST (3 times, 10 min each). Exposure, imaging, and data analysis were done using a KwikQuant Imager system, a product of Kindle Biosciences (Greenwich, Conn. USA). […]

LN229 and U251 cells = test: Annexin V apoptosis flow cytometry, glioblastoma cells; assay type: cell-based
Protocol: To assess the cytotoxicity of ISPs I, II and III, five glioblastoma cell lines, T98G, U118, A172, LN229 and U251, were treated with serial doses of each ISP, respectively, for 48 hours. Cell viability of these cell lines were evaluated by CCK8 assay, and the 50% inhibitory concentration (IC50) was calculated (FIG. 2A, B and FIG. 3). […] Cell distribution in each phase of the cell cycle was assessed in LN229 and U251 cells by flow cytometry, followed by EdU and DAPI staining.
Cells (2×10^5) were plated in 6-well plates and treated with different concentrations of ISP I. Then the cells were harvested and washed three times with PBS. Cells were resuspended in 100 μl binding buffer and were incubated with 5 μl APC-conjugated Annexin V working solution, a product of BD bioscience (Franklin Lakes, N.J. USA), and 1 μl propidium iodide (PI), a product of Invitrogen, for 15 min at room temperature with protection from light. Data acquisition and quantification were processed with BD LSRFortessa flow cytometer, using FlowJo software (Ashland, Oreg. USA).

TIF1A-POL1 interaction = test: Co-immunoprecipitation of TIF1A and POL1; assay type: cell-based; conditions: LN229 cells; 10 μg/mL
Protocol: as §1
For co-immunoprecipitation analysis, LN229 wild-type cells, LN229 cells treated with 10 μg/mL of ISP I, and LN229 cells transfected with SELH siRNA for 24 hours were harvested, and total protein was prepared from cells using Dynabeads Co-Immunoprecipitation Kit (ThermoFisher) according to the manufacturer's protocol. Immunoblotting then was performed using anti-SELH antibody.

human cancer lines = conditions: MCF-7, MDA-MB-231, HepG2, A549, H460, H1299, 786-0, 769-P, U251, A172, U937, HeLa, PC3, PANC-1, TE-1, SGC-7901, HT-29, HL-60; cited from earlier work
[2] = Tolerability in xenograft mouse models (bodyweight, histopathology, clinical chemistry); assay type: in vivo, mice
[3] = tested on: SELH-deficient 786-O and RCC4 cells; test: CCK8 assay in SELH-deficient (CRISPR/CAS9) RCC cells; assay type: cell-based; conditions: 786-O and RCC4 SELH knock out
Protocol: Cell viability was measured by Cell Counting Kit-8 (CCK-8, Dojindo Molecular Technologies, Tokyo, Japan). Cells were seeded in 96-well plates at a density of 3×10^3 cells/well and cultured for 24 hours before treatment with ISP I at different concentration. After treatment for a gradient ISP I concentration from 0 to 20 μg/ml for 48 hours, while control groups were only treated in PBS solution, 10 μl of CCK-8 solution were added to each well and cells were incubated for an additional 2 hours. The absorbance in each well at a wavelength of OD450 was detected by the Synergy H1 microplate reader, a product of BioTek (Winooski, Vt. USA).

[4] = LN229, 786-O and IOMM xenograft mouse models

T1 sequence (Q8IZQ5 with tags, fused parts or gaps U44C): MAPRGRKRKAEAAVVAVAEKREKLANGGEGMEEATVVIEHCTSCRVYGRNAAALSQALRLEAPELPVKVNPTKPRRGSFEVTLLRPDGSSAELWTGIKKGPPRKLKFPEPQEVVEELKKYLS

For `COC1C(O)CC(=O)OC(C)CC=CC=CC(OC2CCC(N(C)C)C(C)O2)C(C)CC(CC=O)C1OC1OC(C)C(OC2CC(C)(O)C(OC(=O)CC(C)C)C(C)O2)C(N(C)C)C1O` (stereo not shown) [ISP I, 4″-isolvalerylspiramycin I], the “binding to SELH (SPR)” value [1] was “tightly binds to SELH”, the “JNK phosphorylation (western blot)” value (JNK2, POL1, TIF1A) was “increased JNK2 phosphorylation; also recorded: JNK1 phosphorylation increased” and the “POL1 and TIF1A expression (western blot)” value (JNK2, POL1, TIF1A) was “slightly reducing POL1 and TIF1A expression in a dose-dependent manner; also recorded: expression of POL1 and TIF1A slightly decreased”. The “apoptosis (Annexin V stain)” value (LN229 and U251 cells) was “induced a dose-dependent apoptosis”, the “TIF1A-POL1 interaction (co-immunoprecipitation)” value (TIF1A-POL1 interaction) was “interaction was disrupted by ISP I treatment” and the “effect on proliferation in vitro of human cancer lines” value (human cancer lines) was “inhibitory effect”. For the same compound, the “histopathology of major organs and standard clinical chemistry” value ([2]; 24 days after treatment) was “no hematologic, renal, pancreatic or liver toxicities”, the bodyweight during treatment [2, 4] was “bodyweight maintenance; also recorded: animals maintained their bodyweight” and the tolerability of treatment [2, 4] was “well-tolerated”. For the same compound, the “sensitivity of SELH-deficient cells vs wild type (CCK8)” value [3] was “resistance to ISP I; also recorded: SELH-deficient cells were resistant to ISP I treatment”.
